Assay results reported in ChEMBL document CHEMBL1145254, “5-Lipoxygenase inhibitors: convenient synthesis of 4-[3-(4-heterocyclylphenylthio)phenyl]-3,4,5,6-tetrahydro-2H-pyran-4-carboxamide analogues” (Bioorg Med Chem Lett, 2005).

What was measured:
[1] = biological target: T1, Polyunsaturated fatty acid 5-lipoxygenase (Homo sapiens, UniProt P09917); experiment: (§1) Inhibition of 5-lipoxygenase mediated LTB4 synthesis in A-23187 simulated human whole blood; assay type: functional, tissue-based
T1 sequence (P09917 whole entry): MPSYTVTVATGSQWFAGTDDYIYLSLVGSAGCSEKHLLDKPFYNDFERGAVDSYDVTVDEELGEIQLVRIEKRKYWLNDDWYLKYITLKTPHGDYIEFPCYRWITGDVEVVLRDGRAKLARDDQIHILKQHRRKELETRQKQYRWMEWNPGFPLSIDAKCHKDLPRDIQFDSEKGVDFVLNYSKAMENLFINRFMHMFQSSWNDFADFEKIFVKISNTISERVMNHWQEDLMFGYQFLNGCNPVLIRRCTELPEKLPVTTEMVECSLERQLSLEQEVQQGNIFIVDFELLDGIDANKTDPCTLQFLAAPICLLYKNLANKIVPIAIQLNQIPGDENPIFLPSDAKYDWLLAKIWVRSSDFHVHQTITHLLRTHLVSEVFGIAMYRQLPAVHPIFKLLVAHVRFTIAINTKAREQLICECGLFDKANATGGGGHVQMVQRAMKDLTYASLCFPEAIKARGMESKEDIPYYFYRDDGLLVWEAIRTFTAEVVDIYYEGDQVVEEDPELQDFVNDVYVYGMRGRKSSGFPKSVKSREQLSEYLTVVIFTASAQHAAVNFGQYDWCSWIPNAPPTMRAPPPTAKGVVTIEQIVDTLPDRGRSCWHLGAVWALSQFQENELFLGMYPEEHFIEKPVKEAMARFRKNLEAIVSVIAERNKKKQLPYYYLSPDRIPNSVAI

[2] = biological target: T2, Polyunsaturated fatty acid 5-lipoxygenase (Homo sapiens) (UniProt P09917); details: Blood, 1 uM
T2 sequence (whole entry): T1 sequence (P09917 whole entry)

[3] = biological target: T3, Polyunsaturated fatty acid 5-lipoxygenase (Mus musculus) (UniProt P48999); experiment: Inhibition of 5-lipoxygenase-mediated platelet activating factor induced thrombosis in male mice; assay type: functional
T3 sequence (whole entry): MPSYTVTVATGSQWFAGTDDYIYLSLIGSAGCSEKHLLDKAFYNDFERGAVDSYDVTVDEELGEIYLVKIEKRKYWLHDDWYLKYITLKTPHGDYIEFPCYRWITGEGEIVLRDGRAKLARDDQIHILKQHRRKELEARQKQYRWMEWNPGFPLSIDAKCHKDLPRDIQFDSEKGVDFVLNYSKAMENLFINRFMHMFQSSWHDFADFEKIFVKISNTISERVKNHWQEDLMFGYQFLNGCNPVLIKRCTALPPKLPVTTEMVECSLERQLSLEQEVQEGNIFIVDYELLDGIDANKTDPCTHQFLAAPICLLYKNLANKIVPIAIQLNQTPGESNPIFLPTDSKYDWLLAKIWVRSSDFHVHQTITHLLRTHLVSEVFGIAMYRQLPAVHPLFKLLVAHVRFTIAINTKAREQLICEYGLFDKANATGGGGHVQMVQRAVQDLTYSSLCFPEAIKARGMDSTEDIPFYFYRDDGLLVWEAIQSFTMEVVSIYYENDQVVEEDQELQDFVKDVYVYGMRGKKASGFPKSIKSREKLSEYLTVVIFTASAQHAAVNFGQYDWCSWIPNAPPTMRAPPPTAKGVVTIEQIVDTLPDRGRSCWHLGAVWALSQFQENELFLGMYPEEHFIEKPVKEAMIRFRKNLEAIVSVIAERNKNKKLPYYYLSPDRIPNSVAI

[4] = biological target: T2, Polyunsaturated fatty acid 5-lipoxygenase (Homo sapiens); experiment: as §1; assay type: functional, tissue-based; details: concentration not given here
[5] = biological target: T2, Polyunsaturated fatty acid 5-lipoxygenase (Homo sapiens); experiment: Inhibition of 5-lipoxygenase mediated LTB4 synthesis in A-23187 simulated human whole blood at 1 uM concentration; assay type: functional, tissue-based

SMILES | IC50 [1] | inhibition [2] | ED50 [3] | inhibition [4] | inhibition [5]
Cc1nccn1-c1ccc(Sc2cccc(C3(C(N)=O)CC4CCC(C3)O4)c2)cc1 (stereo unspecified) | > 1000 nM | -7% |  |  | 
Cc1nccn1-c1ccc(Sc2cccc([C@]3(C(N)=O)CC4CC[C@H](C3)O4)c2)cc1 | 830 nM |  | 7 mg/kg |  | 
Cc1cc(C)n(-c2ccc(Sc3cccc(C4(C(N)=O)CCOCC4)c3)cc2)n1 | > 1000 nM |  |  | -1% | 
Cc1nccn1-c1ccc(Sc2cccc(C3(C(N)=O)CCOCC3)c2)cc1 | 230 nM |  | 3.7 mg/kg |  | 
Cc1nccn1Cc1ccc(Sc2cccc(C3(C(N)=O)CCOCC3)c2)cc1 | 140 nM |  | > 20 mg/kg |  | 
NC(=O)C1(c2cccc(Sc3ccc(Cn4cccc4)cc3)c2)CCOCC1 | 270 nM |  | 3 mg/kg |  | 
CO/N=C/C1(c2cccc(Sc3ccc(-n4ccnc4C)cc3)c2)CCOCC1 | 150 nM |  | 2 mg/kg |  | 
NC(=O)C1(c2cccc(Sc3ccc(-n4cnnc4)cc3)c2)CCOCC1 | > 1000 nM |  |  |  | 1%
